PMC8752738, “A propolis-derived small molecule ameliorates metabolic syndrome in obese mice by targeting the CREB/CRTC2 transcriptional complex” (Nature Communications, 2022)
“And” between values parts separate entries of the source, which are not always exact repeats. Equal values may be shown once.

Assays:
[1] = tested on: tissue protein levels; assay: Immunoblotting of tissue proteins in treated mice; format: in vivo, mouse; details: for Relative LXRa/ACTIN, Mean Diff. (VEH vs. treated) / Relative LXRa/ACTIN, Mean 2 (group mean) / Relative LXRa/ACTIN: Figure 7h; for Relative LXRa/ACTIN, Mean 2 (group mean): N2 = 4; for Relative LXRa/ACTIN: single replicates
Method: Immunoblotting and immunoprecipitation assays were performed as previously described, with antibodies recognizing CREB, Ser133-P-CREB, AMPK, P-AMPK, AKT, P-AKT (Cell Signaling), PGC-1α (Merck), CRTC2 (Calbiochem), PCK1 (Santa Cruz), SREBP1 (Santa Cruz), SREBP2 (BD), HA (Convance), LXRα (Santa Cruz), FLAG (Sigma), GST (Covance), HIS (Abmart), GAPDH (AOGMA), α-TUBULIN (Abmart), β-ACTIN (Abmart), and other antibodies (Supplementary Table 3). For immunostaining assays, primary cultured hepatocytes seeded on coverslips were fixed with 4% paraformaldehyde for 20 min, permeabilized with 0.3% Triton X-100 in PBS, and then blocked by 5% normal goat serum and 0.3% Triton X-100 in PBS, followed by incubation with anti-CREB (1:1000), anti-P-CREB (1:1000), or anti-HA (1:3000) antibodies for 1 h at 4 °C. Slides were then washed, and after washing, slides were incubated with fluorochrome-conjugated secondary antibodies (Invitrogen). Slides were then washed and mounted with Vectashield mounting media containing 4, 6-diamidino-2-phenylindole (DAPI).

[2] = molecular target: T1, CRTC2 / SEC31A interaction (Mus musculus, UniProt Q3U182+Q3UPL0); assay: Co-immunoprecipitation CRTC2 / SEC31A; format: biochemical; details: APC 10 μM in IP mixture
T1 construct: expressed in transfected cells; host or cells: HEK293
T1 sequence (Q3U182 whole entry): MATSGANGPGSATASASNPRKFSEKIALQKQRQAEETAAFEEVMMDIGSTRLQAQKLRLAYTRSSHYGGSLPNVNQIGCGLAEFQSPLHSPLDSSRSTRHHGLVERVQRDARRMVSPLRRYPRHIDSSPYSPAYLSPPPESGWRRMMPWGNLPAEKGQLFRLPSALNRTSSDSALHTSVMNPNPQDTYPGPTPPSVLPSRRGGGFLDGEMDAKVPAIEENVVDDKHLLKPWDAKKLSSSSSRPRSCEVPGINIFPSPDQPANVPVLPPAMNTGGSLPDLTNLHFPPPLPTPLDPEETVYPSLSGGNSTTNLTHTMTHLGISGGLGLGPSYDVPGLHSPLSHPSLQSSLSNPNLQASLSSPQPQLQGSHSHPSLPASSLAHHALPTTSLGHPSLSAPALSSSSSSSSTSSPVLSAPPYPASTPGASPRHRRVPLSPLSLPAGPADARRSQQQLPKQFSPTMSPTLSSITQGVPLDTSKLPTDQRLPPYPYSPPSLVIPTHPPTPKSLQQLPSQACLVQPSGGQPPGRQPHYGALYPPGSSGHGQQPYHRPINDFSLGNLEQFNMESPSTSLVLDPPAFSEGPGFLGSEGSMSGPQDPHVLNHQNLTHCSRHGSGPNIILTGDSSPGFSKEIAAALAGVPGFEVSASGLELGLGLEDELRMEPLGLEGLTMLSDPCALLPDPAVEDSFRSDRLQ
T1 sequence (Q3UPL0 whole entry): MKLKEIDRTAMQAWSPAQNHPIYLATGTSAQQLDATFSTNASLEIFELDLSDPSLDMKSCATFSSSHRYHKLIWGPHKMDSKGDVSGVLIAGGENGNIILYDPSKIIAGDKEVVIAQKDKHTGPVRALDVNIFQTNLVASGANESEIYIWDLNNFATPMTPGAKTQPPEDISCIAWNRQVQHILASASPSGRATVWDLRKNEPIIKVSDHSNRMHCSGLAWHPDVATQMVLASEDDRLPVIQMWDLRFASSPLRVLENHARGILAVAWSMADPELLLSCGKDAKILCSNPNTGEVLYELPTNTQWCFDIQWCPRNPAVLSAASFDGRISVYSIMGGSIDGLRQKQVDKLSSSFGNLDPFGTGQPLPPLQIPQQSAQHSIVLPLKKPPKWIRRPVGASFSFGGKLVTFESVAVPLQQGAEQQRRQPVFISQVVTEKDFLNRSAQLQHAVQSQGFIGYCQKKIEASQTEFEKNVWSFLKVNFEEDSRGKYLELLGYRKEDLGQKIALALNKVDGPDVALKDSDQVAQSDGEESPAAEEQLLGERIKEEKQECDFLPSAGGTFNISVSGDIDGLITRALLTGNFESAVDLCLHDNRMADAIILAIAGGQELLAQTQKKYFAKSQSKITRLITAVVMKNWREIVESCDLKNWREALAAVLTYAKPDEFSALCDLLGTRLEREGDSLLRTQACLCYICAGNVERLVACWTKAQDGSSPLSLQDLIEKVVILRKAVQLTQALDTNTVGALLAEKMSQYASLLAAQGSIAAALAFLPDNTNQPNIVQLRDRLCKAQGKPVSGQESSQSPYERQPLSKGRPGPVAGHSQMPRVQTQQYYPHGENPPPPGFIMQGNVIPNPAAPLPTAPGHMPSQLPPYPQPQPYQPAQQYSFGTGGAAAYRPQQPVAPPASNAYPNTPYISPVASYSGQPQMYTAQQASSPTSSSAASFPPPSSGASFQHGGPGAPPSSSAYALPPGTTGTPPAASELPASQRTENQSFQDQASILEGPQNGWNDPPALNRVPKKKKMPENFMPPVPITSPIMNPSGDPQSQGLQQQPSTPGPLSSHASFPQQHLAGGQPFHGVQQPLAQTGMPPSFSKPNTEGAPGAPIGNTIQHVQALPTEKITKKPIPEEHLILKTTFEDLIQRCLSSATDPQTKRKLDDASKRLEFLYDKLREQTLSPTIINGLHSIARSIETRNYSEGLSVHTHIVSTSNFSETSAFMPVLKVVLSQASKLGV
Method: 1 b) Immunoprecipitation of SEC31A from HEK293 cell lysates with overexpressed […] or
2 FLAG-Crtc2-WT. APC (10 μM) was added to the IP mixture overnight. One of two independent
3 experiments is shown here. […]
5 administered MET and APC as in (a). Data are represented as mean ± SEM (n=6 per group). *,
6 p < 0.05; **, p < 0.01; p values were determined by two-way ANOVA followed Bonferroni’s multiple
7 comparisons test. Source data for this figure are provided as a Source data file.

[3] = tested on: primary hepatocytes; assay: Glucose production assay; format: cell-based, mouse
Method: Primary hepatocytes were exposed to propolis, APC or vehicle control for 1-h prior to 4-h stimulation with glucagon, and then incubated in no-glucose no-phenol-red DMEM (Sigma) supplied with 2 mM sodium pyruvate (Sigma) and 10 mM sodium lactate (Sigma) for 8-h. Glucose levels in the media were detected using a GO kit (Sigma).

[4] = Figure 6b right, N=4, VEH mean 1
[5] = Figure 6b right, individual animals, relative to VEH
[6] = Figure 8c, relative protein in DIO liver, individual samples
[7] = db/db mice, liver, group mean, N=3, VEH mean 1
[8] = db/db mice, liver, individual mouse
[9] = liver of DIO mice, individual samples, n=3
[10] = liver, CRTC2KO mice, drug minus VEH
[11] = liver, WT mice, group mean, N=4

For `CC(C)=CCc1cc(C=CC(=O)O)cc(CC=C(C)C)c1O` [APC, 3,5-diprenyl-4-hydroxycinnamic acid], the “hepatic protein levels of PCK1 and PGC-1α” value ([1]; DIO and db/db mice) was “decreased”, the “accumulation of mature SREBP proteins in the liver” value ([1]; DIO mice) was “reducing” and the “protein levels of LXRα and SREBP1 in the liver” value ([1]; DIO mice) was “decreased”. The “SREBP1/GAPDH, Predicted (LS) mean” value [1, 4] was 0.3097, the “SREBP2/GAPDH, Predicted (LS) mean” value [1, 4] was 0.1841 and the “Relative SREBP1/2 protein levels: SREBP1/GAPDH” value [1, 5] was 0.2289 and 0.468 and 0.339 and 0.2027. The “Relative SREBP1/2 protein levels: SREBP2/GAPDH” value [1, 5] was 0.3721 and 0.1919 and 0.1184 and 0.05422, the “PGC1a/GAPDH density, mean” value ([1]; Figure 8c, DIO liver, group mean, N=3, Ctrl mean 1) was 0.5994 and the “PCK1/GAPDH density, mean” value ([1]; Figure 8c, DIO liver, group mean, N=3, Ctrl mean 1.007) was 0.6998. For the same molecule, the “Relative PGC1a/GAPDH density” value [1, 6] was 0.6916 and 0.563 and 0.5437, the “relative PCK1/GAPDH density” value [1, 6] was 0.6644 and 0.7152 and 0.7198 and the “Relative LXRa/ACTIN, Mean Diff. (VEH vs. treated)” value ([1]; CRTC2KO) was 0.1178. For the same molecule, the “Relative LXRa/ACTIN, Mean 2 (group mean)” value ([1]; CRTC2KO) was 0.6864, the “Relative LXRa/ACTIN” value ([1]; CT2KO) was 0.6612 and 0.7951 and 0.6751 and 0.6141 and the “Relative LXRa/ACTIN, Mean Diff. (VEH vs. treated)” value ([1]; WT) was 0.3705. For the same molecule, the “Relative LXRa/ACTIN, Mean 2 (group mean)” value ([1]; WT) was 0.525, the “Relative LXRa/ACTIN” value ([1]; WT) was 0.572 and 0.5732 and 0.4815 and 0.4734 and the “Relative PCK1/TUBLIN in db/db liver, mean” value [1, 7] was 0.4585 folds. The “Relative PGC1a/TUBLIN in db/db liver, mean” value [1, 7] was 0.2953 folds, the “Relative proteins in the liver of db/db mice, PCK1/TUBLIN” value [1, 8] was 0.5197 folds and 0.4980 folds and 0.3577 folds and the “Relative proteins in the liver of db/db mice, PGC1a/TUBLIN” value [1, 8] was 0.2725 folds and 0.3156 folds and 0.2979 folds. For the same molecule, the “relative protein levels in liver of DIO: LXRa/GAPDH” value [1, 9] was 0.741 and 0.777 and 0.8147, the “relative protein levels in liver of DIO: PPARa/GAPDH” value [1, 9] was 0.924 and 0.9 and 0.98 and the “relative protein levels in liver of DIO: SREBP1/GAPDH” value [1, 9] was 0.391 and 0.515 and 0.283. For the same molecule, the “relative protein levels in liver of DIO: LXRa, group mean (Mean 1)” value ([1]; liver of DIO mice, mean of N=3) was 0.7776, the “relative protein levels in liver of DIO: PPARa, group mean (Mean 1)” value ([1]; liver of DIO mice, mean of N=3) was 0.9347 and the “relative protein levels in liver of DIO: SREBP1, group mean (Mean 1)” value ([1]; liver of DIO mice, mean of N=3) was 0.3963. For the same molecule, the “SREBP1/ACT IN CT2KO, Mean Diff. vs. VEH” value [1, 10] was -0.1371, the “SREBP2/ACT IN CT2KO, Mean Diff. vs. VEH” value [1, 10] was -0.0958 and the “SREBP1/ACT IN CT2KO, mean” value ([1]; liver, CRTC2KO mice, group mean, N=4) was 0.5503. The “SREBP1/ACT IN CT2KO (related SREBP1 protein levels in CRTC2KO liver)” value ([1]; liver, CRTC2KO mice, individual replicates, Supp.fig.5a left) was 0.5592 and 0.5689 and 0.5793 and 0.4937, the “SREBP2/ACT IN CT2KO (related SREBP2 protein levels in CRTC2KO liver)” value ([1]; liver, CRTC2KO mice, individual replicates, Supp.fig.5a right) was 0.6411 and 0.5673 and 0.6822 and 0.6938 and the “SREBP1/ACT IN WT, Mean Diff. vs. VEH” value ([1]; liver, WT mice, drug minus VEH) was -0.2945. For the same molecule, the “SREBP2/ACT IN WT, Mean Diff. vs. VEH” value ([1]; liver, WT mice, drug minus VEH) was -0.4593, the “SREBP1/ACT IN WT, mean” value [1, 11] was 0.6687 and the “SREBP2/ACT IN WT, mean” value [1, 11] was 0.5653. For the same molecule, the “SREBP1/ACT IN WT (related SREBP1 protein levels in liver)” value ([1]; liver, WT mice, individual replicates, Supp.fig.5a left) was 0.6865 and 0.5728 and 0.728 and 0.6877, the “SREBP2/ACT IN WT (related SREBP2 protein levels in liver)” value ([1]; liver, WT mice, individual replicates, Supp.fig.5a right) was 0.6071 and 0.5991 and 0.5115 and 0.5437 and the “phosphorylated AKT in liver, muscle, brown and white adipose tissues” value ([1]; treated obese mice) was “enhanced”. For the same molecule, the “protein interaction between CRTC2 and SEC31A” value [2] was “no impact”, the “glucose output and Pgc-1α, Pck1 expression in CRTC2-null primary hepatocytes” value ([3]; glucagon, APC 10 μM) was “unable to further reduce” and the “glucose output induced by glucagon” value ([3]; primary hepatocytes, APC 5 μM) was “reduced”.
